Assay results as given in patent US4289762A, “10-(1,2-Propadienyl) steroids as irreversible aromatase inhibitors” (Merrell Dow Pharmaceuticals Inc., priority 1980, dated 1981).
Where “and” joins values, the source holds several entries; their conditions need not be identical. Identical values can stand only once. Entries after “also recorded” stand apart in the source; their conditions may differ. Like-named read-outs stand apart in the source and are kept apart here.

Experiments:
Assay in all cases: biochemical
aromatase [1] = target: T1, aromatase (Homo sapiens, UniProt P11511); type: human (placenta microsomal fraction); settings: for inhibition at 0.1 µM: inhibitor 0.1 uM; for inhibition at 0.1 µM / inhibition at 1 µM / inhibition at 0.25 µM / inhibition at 2.5 µM: read-out: Percent Inhibition; for inhibition at 1 µM: inhibitor 1.0 uM; for inhibition at 0.25 µM: inhibitor 0.25 uM; for inhibition at 2.5 µM: inhibitor 2.5 uM
T1 construct: microsomal fraction isolated from human placenta; from tissue; host or cells: human placenta, microsomal fraction
T1 sequence (P11511 1-503): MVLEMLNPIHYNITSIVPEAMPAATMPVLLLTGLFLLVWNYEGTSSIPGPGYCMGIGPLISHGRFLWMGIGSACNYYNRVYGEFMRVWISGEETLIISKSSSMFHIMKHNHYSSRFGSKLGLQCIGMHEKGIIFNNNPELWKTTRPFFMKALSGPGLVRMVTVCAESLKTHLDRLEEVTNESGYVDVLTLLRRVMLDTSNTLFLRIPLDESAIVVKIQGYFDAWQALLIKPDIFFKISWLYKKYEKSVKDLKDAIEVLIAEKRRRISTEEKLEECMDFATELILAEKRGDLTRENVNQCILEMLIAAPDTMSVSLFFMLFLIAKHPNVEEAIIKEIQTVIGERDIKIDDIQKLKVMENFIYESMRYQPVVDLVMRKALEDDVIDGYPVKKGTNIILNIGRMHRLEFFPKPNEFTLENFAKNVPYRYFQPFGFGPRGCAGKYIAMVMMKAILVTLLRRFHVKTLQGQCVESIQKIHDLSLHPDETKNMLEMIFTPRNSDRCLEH
Description: In this assay, the inhibitor is preincubated with the enzyme prior to assaying for enzyme activity in the presence of high substrate levels.
(§1) In the time-dependent assay, an amount of the enzyme inhibitor in 100 ul of the assay buffer described above which will provide assay concentrations which are approximately one and ten times the IC50 values are added to 35 ml centrifuge tubes containing 600 ul of the NADPH generating system described above. […] These preparations are mixed using a vortex mixer and incubated for 0, 10, 20 or 40 minutes at 25° C. […] Following vortexing, the enzyme incubation is continued for 10 minutes before being terminated by the addition of chloroform. The amount of radioactivity in the aqueous fraction is determined by scintillation procedures. […] Therefore, the percent enzyme inhibition is expressed as a percentage of the 100 percent enzyme activity value.

aromatase [2] = target: T1, aromatase; type: biochemical, human (placenta microsomal fraction)
Description: Assay buffer contains 100 mM KCl, 10 mM KH2 PO4, 10 mM dithiothreitol and 1 mM EDTA at pH 8.0. […] These preparations are mixed using a vortex mixer and incubated for 30 minutes at 37° C. with a 95% O2 :5% CO2 gas phase in a Dubinoff shaking incubator.
The enzymatic reaction is terminated by the addition of 10 ml of CHCl3. After vortexing for 20 sec., aqueous/organic emulsions are dispersed and phase separation achieved following centrifugation at 600×g for 10 min. Duplicate 500 ul samples of the upper aqueous phase of each incubation sample are added to 10×75 mm culture tubes. To these tubes, 500 ul of cold 0.25% dextran-coated charcoal suspension is added, vortexed, incubated for 15 min. at 4° C., then centrifuged at 2600×g in a refrigerated centrifuge (4° C.). The supernatant fraction is decanted into a 20 ml scintillation vial and 15 ml of aqueous scintillation cocktail is added. The radioactivity of ^3 H2 O resulting from liberated 1 and 2 tritium atoms during the enzymatic reaction is determined by counting for 10 min. in a liquid scintillation counter. This assay procedure is adapted from the procedures of Reed et al, J. Biol. Chem., 251, 1625 (1976), and Thompson et al, J. Biol. Chem., 249, 5364 and 5374 (1974).

aromatase [3] = target: T1, aromatase; type: human (placenta microsomal fraction); settings: for Ki: time-dependent assay, Table 2, read-out: Apparent Ki
Description: as §1
Compounds which show time-dependent inhibition are then assayed to establish the inhibition constant, Ki, which is the apparent dissociation constant for the enzyme-inhibitor complex. This determination requires measurements at initial velocities of enzyme reaction. […] The enzyme half-life (t1/2) at these different inhibitor concentrations ([In]) is used to determine the Ki by the linear regression equation of the t1/2 vs. 1/[In]. The Ki is equivalent to the inhibitor concentration when t1/2 is equal to zero.

C[C@]12C=CC(=O)C=C1C=C[C@@H]1[C@@H]2CC[C@]2(C)C(=O)CC[C@@H]12 [Androsta-1,4,6-triene-3,17-dione]
inhibition at 0.1 µM (aromatase [1]; preincubation 0 minutes): 20.5%
inhibition at 0.1 µM (aromatase [1]; preincubation 20 minutes): 45.5%
inhibition at 0.1 µM (aromatase [1]; preincubation 40 minutes): 54.8%
inhibition at 1 µM (aromatase [1]; preincubation 0 minutes): 88.8%
inhibition at 1 µM (aromatase [1]; preincubation 20 minutes): 92.8%
inhibition at 1 µM (aromatase [1]; preincubation 40 minutes): 95.2%
IC50 (aromatase [2]): 100 nM
Ki (aromatase [3]): 110 nM

C[C@]12C=CC(=O)C=C1CC[C@@H]1[C@@H]2CC[C@]2(C)OC(=O)CC[C@@H]12 [1-dehydrotestololactone, 1,2,3,4,4a,4b,7,9,10,10a-Decahydra-2-hydroxy-2,4b-dimethyl-7oxo-l-phenanthrene-propionic acid O-lactone]
inhibition at 0.25 µM (aromatase [1]; preincubation 0 minutes): 0%
inhibition at 0.25 µM (aromatase [1]; preincubation 20 minutes): 3.6%
inhibition at 0.25 µM (aromatase [1]; preincubation 40 minutes): 36.1%
inhibition at 2.5 µM (aromatase [1]; preincubation 0 minutes): 24.7%
inhibition at 2.5 µM (aromatase [1]; preincubation 20 minutes): 82.7%
inhibition at 2.5 µM (aromatase [1]; preincubation 40 minutes): 96.9%
IC50 (aromatase [2]): 2500 nM
Ki (aromatase [3]): 7900 nM

C=C=C[C@]12CCC(=O)C=C1CC[C@@H]1[C@@H]2CC[C@]2(C)C(=O)CC[C@@H]12 [10-(1,2-propadienyl)estr-4-ene-3,17-dione]
Activity compared with known therapeutic agents / known aromatase inhibitors (aromatase [1]): superior activity to known therapeutic agents; also recorded: superior to known aromatase inhibitors
Time-dependent inhibition of aromatase (aromatase [1]): significant time-dependent inhibition of aromatase
Percent Inhibition (aromatase [1]; 1 µM): 50.2 and 69.2 and 84.0
Enzyme affinity compared with other known inhibitors (aromatase [2]): greater enzyme affinity than other known inhibitors
Affinity for the enzyme site relative to natural substrate testosterone (times greater) (aromatase [3]): three times greater
Binding to the enzyme (aromatase [3]): irreversibly bound to the enzyme
Factor by which enzyme affinity exceeds that of 1-dehydrotestololactone (aromatase [3]): 58.1
Factor by which enzyme affinity exceeds that of aminoglutethimide (aromatase [3]): 1,491.2
Factor by which enzyme affinity exceeds that of androsta-1,4,6-triene-3,17-dione (aromatase [3]): 8.1
